From the NIST ThermoML archive (doi:10.1016/j.tca.2015.03.003)
Numbers after ± are expanded uncertainties.

Conditions: Crystal; DTA

SMILES | Normal melting temperature
[Cl-].[Na+] [sodium chloride] | 801.1 ± 4 °C
[Cl-].[K+] [potassium chloride] | 771.1 ± 4 °C
